Measured values reported in the METLIN SMRT retention time set (Domingo-Almenara et al. 2019).

Experiment: gradient 5% acetonitrile 3 min, to 50% in 2 min, to 85% in 15 min, held 3 min, 100 µL/min
Conditions: column: Zorbax Extend-C18 2.1 x 50 mm; eluents: water / acetonitrile, 0.1% formic acid
Procedure, shortened: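 The mobile phases were water and acetonitrile, each with 0.1% formic acid, pumped at 100 μL/min through a Zorbax Extend-C18 column (2.1 × 50 mm, 1.8 μm). Pure standards were injected as mixtures of ~100 molecules and detected by a quadrupole time-of-flight mass spectrometer in positive and negative ionization mode. Retention time came from computationally picked adduct peaks, each inspected by hand.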

Row | SMILES | RP-LC retention time
1 | CCn1c(=O)c(N2CCC(NC(=O)Nc3cccc(Br)c3)CC2)nc2ccccc21 | 1040 s
2 | Cc1ccc(CNC(=O)CN2CCc3ccccc3C2C(=O)N2CCCCC2)cc1C (stereo unspecified) | 908 s
3 | Cc1ccc2c(Nc3ccc(F)cc3F)c(C(=O)N3CCCC3)cnc2n1 | 596 s
4 | Cc1ccc(C)c(CN2CCCN(CC(=O)NC(C)CCc3ccccc3)S2(=O)=O)c1 (stereo unspecified) | 1140 s
5 | CCOC(=O)C1CCN(S(=O)(=O)c2ccc3onc(C(=O)N4CCCC4)c3c2)CC1 | 993 s
6 | O=c1c(NCCC2=CCCCC2)nc2ccncc2n1Cc1ccccc1 | 818 s
7 | Cc1noc(C)c1S(=O)(=O)N1CCC(C(C)C(=O)NCCc2c[nH]c3ccccc23)CC1 (stereo unspecified) | 858 s
8 | CCc1ccc(OCC(=O)N(Cc2ccc(Br)o2)C2CCS(=O)(=O)C2)cc1 (stereo unspecified) | 963 s
9 | O=C(NCc1ccc(C(F)(F)F)cc1)C1=C2CCCN2c2ccccc2S1(=O)=O | 922 s
10 | Cc1ccc(-c2nnc(-c3ccc(Cl)c(S(=O)(=O)N4CCCC4)c3)o2)cc1 | 1150 s
11 | Cc1nc2cc(-c3noc(-c4ccccc4C)n3)ccc2o1 | 640 s
12 | Cc1ccc(C)c(NC(=O)N2C[C@@H](F)C[C@H]2C(=O)N2CCCCC2)c1 | 730 s
13 | O=C(NC1CCCCC1)N1CCC(c2nc(C3CCOCC3)no2)CC1 | 733 s
14 | Cc1cc(C(=O)N2CCOCC2)n(CC(=O)NCc2ccco2)n1 | 576 s
15 | CCOc1ccc(C(=O)Nc2cc(-c3cn4cccnc4n3)ccc2OC)cc1 | 723 s
16 | Cc1ccc(=O)n(CCNC(=O)c2ccc3nsnc3c2)n1 | 619 s
17 | CCC1CCCCN1S(=O)(=O)c1cc(-c2cc(C)[nH]n2)sc1C (stereo unspecified) | 958 s
18 | CC(C)[C@@H]1CC[C@@H](C)C[C@@H]1P(=O)(c1ccccc1)c1ccccc1 | 1290 s
19 | CCOC(=O)C1CCN(c2c(C#N)cnc3ccc(Cl)cc23)CC1 | 935 s
20 | CN1C(=O)c2cccn2CC1CNC(=O)c1cccs1 (stereo unspecified) | 628 s
21 | c1cc2c(cc1-c1noc(C3CCC3)n1)nnn2CCN1CCCCC1 | 654 s
22 | O=C(NCCn1c(=O)n(Cc2ccc(F)cc2)c2cccnc21)C1CC1 | 711 s
23 | O=C(O)c1cccc2c1C(=O)c1cccc3snc-2c13 | 804 s

Row | SMILES | RP-LC retention time
24 | O=C(NCc1ccc2c(c1)OCO2)C1Cn2cccc2C(=O)N1Cc1cccnc1 (stereo unspecified) | 594 s
25 | O=C(CNC(=O)c1ccccc1)NCCSc1ccc(C(=O)Nc2ccccc2)cn1 | 728 s
26 | CN(C)c1ccc(-c2nc3ncccn3c2Nc2ccccc2)cc1 | 687 s
27 | COC(=O)c1ccc2c(=O)n(-c3cccc(F)c3)c(N3CCCCCC3)nc2c1 | 1210 s
28 | O=C(Cc1csc(SCc2cccc(Cl)c2)n1)Nc1ccc2c(c1)OCCO2 | 953 s
29 | Cc1sc(-c2noc(C(C)C)n2)cc1S(=O)(=O)N1CCC(C(=O)NCc2ccco2)CC1 | 992 s
30 | O=C(NC1CCN(c2cc(-c3cccnc3)[nH]n2)CC1)c1ccc2cc[nH]c2c1 | 616 s
31 | O=C1CCCc2nc(N3CCN(c4ncccn4)CC3)nc(Nc3ccccc3)c21 | 1110 s
32 | COCc1cc(=O)n(CC(=O)NCc2ccc(F)cc2)c(N)n1 | 583 s
33 | CCOC(=O)c1c(S(=O)(=O)N2CCC(C(=O)Nc3ccccn3)CC2)c(C)n(C)c1C | 678 s
34 | CCOc1ccc(-c2nc(Cc3noc(-c4ccccc4OC)n3)c(C)o2)cc1 | 1170 s
35 | COCCN1C(=O)CCc2cc(NC(=O)Cc3ccccc3OC)ccc21 | 731 s
36 | CN(C)CC1CN(C(=O)c2cc(F)ccc2F)CC12CCOCC2 (stereo unspecified) | 572 s
37 | Cc1ccc(C(=O)NC2CCN(c3cc(N4CCCC4)cnn3)C2)s1 (stereo unspecified) | 649 s
38 | C#CCOCC1CCCN(S(=O)(=O)Cc2ccccc2)C1 (stereo unspecified) | 840 s
39 | COc1ccc(Cn2nc3c(S(=O)(=O)N4CCCCC4)cccn3c2=O)cc1F | 888 s
40 | COc1ccccc1-c1nc(-c2ccc(S(=O)(=O)N3CCCC3)cc2)no1 | 1080 s
41 | COc1nc2ccccc2nc1N1CCCC(C(=O)Nc2cccc(F)c2)C1 (stereo unspecified) | 1170 s
42 | CCCn1cnnc1C1CCCCN1C(=O)NCc1ccc(OC)cc1 (stereo unspecified) | 659 s
43 | COc1cccc(NC(=O)Nc2c(-c3ccccc3)nc3ccccn23)c1 | 665 s
44 | O=C(NC1CC1)c1ccc(OCC2CCCN(C(=O)c3ccsc3)C2)cc1 (stereo unspecified) | 737 s
45 | O=C(Cc1cc(-c2ccc(Cl)cc2)on1)NCCCn1ccnc1 | 582 s
46 | CC(C)Cc1csc(-c2csc(S(=O)(=O)NCc3ccccc3F)c2)n1 | 1140 s

Row | SMILES | RP-LC retention time
47 | COc1ccc(-c2cc3c4nn(CC(=O)NC(C)C)c(=O)n4ccn3n2)cc1 | 758 s
48 | COc1ccc(CC(=O)N2CCCC2c2cc(C)on2)cc1OC (stereo unspecified) | 716 s
49 | Cc1ccc(C(=O)Nc2c(C(=O)NCc3ccc4c(c3)OCO4)[nH]c3ccc(C)cc23)cc1 | 979 s
50 | COc1cc(CN2CCCC2c2cc(C(C)C)no2)ccc1OCC(N)=O (stereo unspecified) | 584 s
51 | O=C(COc1ccc(F)cc1)NCC(=O)N1CCCc2ccccc21 | 850 s
52 | O=C1COc2cc(Cl)ccc2N1Cc1nc(-c2ccc3c(c2)OCO3)no1 | 1070 s
53 | c1ccc(-c2n[nH]c(CC3CCNC3)n2)cc1 (stereo unspecified) | 570 s
54 | Cc1noc(C2CN(C(=O)CCCc3ccccc3)CC23CCOCC3)n1 (stereo unspecified) | 736 s
55 | CC1CCN(C(=O)CN2C(=O)COc3ccc(C(=O)N4CCCCC4)cc32)CC1 | 716 s
56 | C#CCOCC(O)CN1CCN(C(c2ccccc2)c2ccccc2)CC1 (stereo unspecified) | 606 s
57 | Cc1ccn2c(Nc3ccc4c(c3)OCCO4)c(-c3ccc(O)cc3)nc2c1 | 719 s
58 | Cc1cc(=O)n(CC(=O)Nc2ccc(C)c(C)c2)c(N2CCCCC2)n1 | 717 s
59 | Cc1cc(=O)n(CC(=O)Nc2ccc(F)c(F)c2)cn1 | 620 s
60 | COc1ccc(N2CCN(c3nc(C(=O)N4CCN(CC(C)C)CC4)cs3)CC2)cc1 | 648 s
61 | CCOc1cccc(NC2=NS(=O)(=O)c3ccccc32)c1 | 843 s
62 | Cc1ccc(-n2c(=O)c3c(cc(C)n3C)n(CC(=O)Nc3ccc4c(c3)OCO4)c2=O)cc1 | 819 s
63 | O=C(NCCc1csc(-c2cccc(F)c2)n1)C1CCCC1 | 832 s
64 | CN(C)CCCNC(=O)C1CCCN(c2cnc3nccnc3c2)C1 (stereo unspecified) | 562 s
65 | CCN1C(=O)COc2ccc(-c3noc(C4(c5ccc(OC)cc5)CC4)n3)cc21 | 1140 s
66 | CCOc1ccccc1-c1nn2c(-c3cccnc3)nnc2s1 | 1040 s
67 | CCN(CC)C(=O)c1cc(C)nc2c1c(=O)n(Cc1ccccc1C)c(=O)n2C | 938 s
68 | COc1ccc(-c2noc(-c3nc(-c4ccc(OC)c(OC)c4)no3)n2)cc1OC | 1080 s
69 | COc1ccc(-c2noc(-c3ccc(N4CCN(C)CC4)nn3)n2)cc1 | 630 s

Row | SMILES | RP-LC retention time
70 | COc1ccc(N2CCN(C(=O)c3ccc(-c4cccs4)nc3)CC2)cc1 | 852 s
71 | CCOc1cc(C(=O)N2CCCC2c2nc(-c3ccc(OC)cc3)no2)cc(OCC)c1OCC (stereo unspecified) | 1080 s
72 | COc1cccc(-c2ccc(=O)n(CCc3nc(-c4cccnc4)no3)n2)c1 | 746 s
73 | CCc1cc(=O)n(CC(=O)N2CCCc3ccccc32)c(N2CCOCC2)n1 | 781 s
74 | CCNc1cc(N2CCC(CCC(=O)NCc3cccc(C)c3)CC2)ncn1 | 659 s
75 | COc1cc(NC(=O)Cn2cccc2-c2nnc(C3CCC3)o2)cc(OC)c1 | 876 s
76 | Cc1cc(F)ccc1NC(=O)Cc1nnc(-c2cnccn2)o1 | 659 s
77 | CC(C)CCN1CCC(N(C(=O)NCCc2ccccc2)C2CCOCC2)CC1 | 700 s
78 | Cc1ccc(-c2noc(CN3N=NC4C(=O)N(c5ccc(C)c(C)c5)C(=O)C43)n2)cc1C (stereo unspecified) | 1140 s
79 | Cc1nncn1C1CN(C(=O)c2ccc(N(C)C)cc2)C1 | 602 s
80 | CC1CCC2(CC1)NC(=O)N(CC(=O)Nc1ccc3c(c1)OCCO3)C2=O (stereo unspecified) | 783 s
81 | Cc1sc2ccn(CC(C)C)c(=O)c2c1C(=O)N1CCCCCC1 | 897 s
82 | O=C(NCCc1c[nH]c2ccccc12)c1nnc2n(c1=O)CCN2c1ccc(F)cc1 | 692 s
83 | COc1ccc(C2CC(=O)c3cnc(N4CCN(c5ccccn5)CC4)nc3C2)c(OC)c1 (stereo unspecified) | 713 s
84 | CN(C)c1cc(-n2cnc(C(=O)Nc3ccc4c(c3)OCO4)c2)ncn1 | 774 s
85 | CCCC(NC(=O)Cc1ccc(OCC)c(OCC)c1)C(=O)Nc1nc2ccccc2[nH]1 (stereo unspecified) | 1070 s
86 | Cc1cccc(Nc2nc(-c3ccc(C(C)C)cc3)cs2)n1 | 1130 s
87 | CC1CCN(c2cc(-c3noc(C(=O)NCc4ccco4)n3)ccn2)CC1 | 808 s
88 | Cc1ccc(C)c(-c2coc(-c3ccc(NC(=O)C(C)C)cc3)n2)c1 | 1170 s
89 | COc1ccc(NC(=O)N2CCC3(C2)C(=O)N(C)c2ccccc23)cc1 (stereo unspecified) | 745 s
90 | CSc1cccc(NC(=O)Cn2c(=O)n(C3CC3)c(=O)c3nscc32)c1 | 705 s
91 | COc1ccc(C)cc1NC(=O)Cn1nc2nc(N3CCCC(C)C3)ccn2c1=O (stereo unspecified) | 841 s
